# pIC50: −log10 of the molar value.
# Molecular target: T1, PI3Kα H1047R (T47D cells) (Homo sapiens, UniProt P42336, H1047R)
# T1 construct: endogenous in cells; host or cells: T47D cells
# Assay: PI3Kα cellular assay: pAKT HTRF in T47D cells after EGF stimulation
# Format: cell-based
# Conditions: for pIC50: T47D cells (PI3Kα H1047R), pAKT S473 HTRF
# Method in brief: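 pAKT read by HTRF in lysates of EGF-stimulated (20 ng/mL, 10 min) T47D H1047R cells. Before stimulation, serum-starved cells (16 h) received compound for 1 h at 37 °C, dosed from 10,000 nM down to 0.5 nM in 3-fold steps.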
# [1] = selectivity of T47D (H1047R) over SKBR3 (WT) pAKT IC50
# [2] = 1 hr compound, 20 ng/ml EGF 10 min
# [3] = selectivity T47D (H1047R) over SKBR3 (WT), pAKT HTRF
# T1 sequence (P42336 whole entry H1047R): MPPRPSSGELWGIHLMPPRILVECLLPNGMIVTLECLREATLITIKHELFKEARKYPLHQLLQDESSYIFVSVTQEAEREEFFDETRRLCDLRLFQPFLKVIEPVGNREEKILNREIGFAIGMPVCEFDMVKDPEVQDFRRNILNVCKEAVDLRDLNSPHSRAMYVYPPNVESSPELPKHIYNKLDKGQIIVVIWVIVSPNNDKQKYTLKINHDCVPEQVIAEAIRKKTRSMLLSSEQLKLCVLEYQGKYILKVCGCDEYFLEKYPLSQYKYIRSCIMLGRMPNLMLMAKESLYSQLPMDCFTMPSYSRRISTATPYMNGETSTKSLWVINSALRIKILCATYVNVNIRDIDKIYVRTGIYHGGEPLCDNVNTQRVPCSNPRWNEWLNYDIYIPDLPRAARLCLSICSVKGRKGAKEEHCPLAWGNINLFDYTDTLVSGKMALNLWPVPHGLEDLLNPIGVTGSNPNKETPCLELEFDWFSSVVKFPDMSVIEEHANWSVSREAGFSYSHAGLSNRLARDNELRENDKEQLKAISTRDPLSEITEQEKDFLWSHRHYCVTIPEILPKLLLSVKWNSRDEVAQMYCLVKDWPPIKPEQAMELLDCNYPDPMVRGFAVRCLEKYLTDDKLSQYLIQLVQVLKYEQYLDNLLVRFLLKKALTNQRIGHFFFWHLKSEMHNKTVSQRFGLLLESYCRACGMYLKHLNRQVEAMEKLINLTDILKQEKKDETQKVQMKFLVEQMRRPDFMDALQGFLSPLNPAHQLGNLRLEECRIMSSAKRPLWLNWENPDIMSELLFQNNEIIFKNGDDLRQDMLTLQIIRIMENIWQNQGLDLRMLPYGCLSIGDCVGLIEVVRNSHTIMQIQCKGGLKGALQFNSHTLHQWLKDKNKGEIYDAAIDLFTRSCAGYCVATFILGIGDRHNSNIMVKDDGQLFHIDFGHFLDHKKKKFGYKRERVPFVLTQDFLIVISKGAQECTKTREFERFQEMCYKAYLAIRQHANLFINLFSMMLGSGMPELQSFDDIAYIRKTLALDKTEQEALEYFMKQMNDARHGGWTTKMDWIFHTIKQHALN
# T1 sequence (P27986 whole entry partner): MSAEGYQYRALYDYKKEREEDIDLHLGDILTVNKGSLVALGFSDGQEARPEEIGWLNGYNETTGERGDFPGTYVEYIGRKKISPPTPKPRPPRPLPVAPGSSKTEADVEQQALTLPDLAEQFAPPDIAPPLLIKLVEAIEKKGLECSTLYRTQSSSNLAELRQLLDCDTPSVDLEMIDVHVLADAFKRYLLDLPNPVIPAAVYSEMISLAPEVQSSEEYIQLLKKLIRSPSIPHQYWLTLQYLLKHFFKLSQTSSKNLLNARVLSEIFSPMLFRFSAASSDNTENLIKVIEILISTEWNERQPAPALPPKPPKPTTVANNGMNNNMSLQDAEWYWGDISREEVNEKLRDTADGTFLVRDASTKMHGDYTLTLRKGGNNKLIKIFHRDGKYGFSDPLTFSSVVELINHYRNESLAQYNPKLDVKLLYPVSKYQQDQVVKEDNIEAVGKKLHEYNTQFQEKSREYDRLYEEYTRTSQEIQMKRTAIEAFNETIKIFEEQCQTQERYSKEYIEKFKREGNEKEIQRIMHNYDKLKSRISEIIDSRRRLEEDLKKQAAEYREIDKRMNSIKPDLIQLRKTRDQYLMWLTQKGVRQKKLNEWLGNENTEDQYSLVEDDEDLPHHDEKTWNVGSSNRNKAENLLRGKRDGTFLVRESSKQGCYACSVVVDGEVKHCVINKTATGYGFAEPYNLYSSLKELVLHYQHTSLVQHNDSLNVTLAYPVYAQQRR
SMILES,pIC50 (EGF stimulation),T47D pAKT S473 HTRF IC50 (H1047R): T47D (H1047R) selectivity over SKBR3 (WT) [1],pIC50 [2],T47D pAKT S473 HTRF IC50 (H1047R): T47D (H1047R) selectivity over SKBR3 (WT) [3]
CC(=O)Nc1nn(C)c2ccc(-c3cc(=O)n4cc(C)cc([C@@H](C)Nc5ccccc5C(=O)O)c4n3)cc12 [Compound 793],< 5.70,C (C denotes ≤5-fold),,
Cc1cc(C(C)Nc2ccccc2C(=O)O)c2nc(-c3ccc4c(c3)CC(F)(F)C4)cc(=O)n2c1 (stereo not shown) [Compound 821],6.30 to 7.00,A (A denotes >20-fold),,
Cc1cc([C@@H](C)Nc2ccccc2C(=O)O)c2nc(-c3cc4c(N)nn(C)c4cc3C)cc(=O)n2c1 [Compound 704],< 5.70,C (C denotes ≤5-fold),,
Cc1cc([C@@H](C)Nc2ccccc2C(=O)O)c2nc([C@@H]3CCOC3)cc(=O)n2c1 [Compound 538],,,< 5.70,C (C denotes ≤5-fold)
Cc1cc(C(C)Nc2ccccc2C(=O)O)c2nc(N3CCSCC3)cc(=O)n2c1 (stereo not shown) [Compound 239],,,< 5.70,C (C denotes ≤5-fold)
Cc1cccc(-c2nc3c([C@H](C)Nc4ccccc4S(C)(=O)=O)cc(C)cn3c(=O)c2C)c1 [Compound 1320],,,,B (B denotes 20-fold≥value>5-fold)
Cc1cc([C@H](C)Nc2ccccc2C(=O)O)c2nc(C3CCN(CC(N)=O)CC3)cc(=O)n2c1 [Compound 510],,,< 5.70,C (C denotes ≤5-fold)
Cc1cc(C(C)Nc2ccc(C#N)cc2C(=O)O)c2nc(N3CCOCC3)cc(=O)n2c1 (stereo not shown) [Compound 329],,,< 5.70,C (C denotes ≤5-fold)
Cc1cccc(-c2nc3c(C(C)Nc4ccccc4C(=O)O)cc(C)cn3c(=O)c2C(C)C)c1 (stereo not shown) [Compound 1245],,,,A (A denotes >20-fold)
CC(=O)N1CCC(c2cc(=O)n3cc(C)cc(C(C)Nc4ccccc4C(=O)O)c3n2)CC1 (stereo not shown) [Compound 508],,,< 5.70,C (C denotes ≤5-fold)
Cc1cc([C@H](C)Nc2ccccc2C(=O)O)c2nc(-c3cc4c(N)nn(C)c4cc3C)c(C)c(=O)n2c1 [Compound 733],,C (C denotes ≤5-fold),,
Cc1cc([C@H](C)N(C)c2ccccc2C(=O)O)c2nc(N3CCOCC3)cc(=O)n2c1 [Compound 310],,,< 5.70,C (C denotes ≤5-fold)
Cc1cc([C@@H](C)Nc2ccccc2C(=O)O)c2nc(-c3ccc(C4CCCC(C)C4)cc3)c(C)c(=O)n2c1 (stereo partly shown) [Compound 1338],,,,C (C denotes ≤5-fold)
Cc1cc([C@H](C)Nc2ccccc2S(N)(=O)=O)c2nc(-c3cnc4c(c3)c(C)nn4C)c(C)c(=O)n2c1 [Compound 988],< 5.70,C (C denotes ≤5-fold),,
Cc1cc([C@@H](C)NC2=C(C(=O)O)C=CCC2)c2nc(-c3ccc(CC4CCN(C(=O)C5CC5)CC4)nc3)cc(=O)n2c1 [Compound 783],< 5.70,C (C denotes ≤5-fold),,
Cc1cc([C@H](C)Nc2ccccc2-c2ccnnc2)c2nc(-c3ccc4c(C)nn(C5CC5)c4c3)c(C)c(=O)n2c1 [Compound 1129],5.70 to 6.30,,,B (B denotes 20-fold≥value>5-fold)
Cc1cc([C@H](C)Nc2ccccc2C(=O)O)c2nc(-c3ccc4c(c3)CC(=O)N4)cc(=O)n2c1 [Compound 764],,A (A denotes >20-fold),,

SMILES,pIC50 (EGF stimulation),T47D pAKT S473 HTRF IC50 (H1047R): T47D (H1047R) selectivity over SKBR3 (WT) [1],pIC50 [2],T47D pAKT S473 HTRF IC50 (H1047R): T47D (H1047R) selectivity over SKBR3 (WT) [3]
Cc1cc([C@@H](C)Nc2ccccc2S(C)(=O)=O)c2nc(-c3ccc(C4CCC(C)CC4)cc3)c(C)c(=O)n2c1 (stereo partly shown) [Compound 1354],,,,C (C denotes ≤5-fold)
Cc1cc([C@H](C)Nc2ccccc2C(=O)O)c2nc(-c3ccc4c(C)nn(C)c4c3)c(C)c(=O)n2c1 [Compound 928],< 5.70,C (C denotes ≤5-fold),,
Cc1cc(C(C)Nc2ccccc2C(=O)O)c2nc(-n3cnc4ccc(O)cc43)cc(=O)n2c1 (stereo not shown) [Compound 801],< 5.70,C (C denotes ≤5-fold),,
Cc1cc(C(C)Nc2ccccc2)c2nc(-c3cnc4[nH]nc(-c5ccccc5)c4c3)cc(=O)n2c1 (stereo not shown) [Compound 265],,,< 5.70,C (C denotes ≤5-fold)
Cc1cc(C(C)Nc2ccccc2S(N)(=O)=O)c2nc(-c3ccc(F)cc3)cc(=O)n2c1 (stereo not shown) [Compound 586],,,< 5.70,C (C denotes ≤5-fold)
Cc1cc([C@H](C)Nc2ccccc2C(=O)O)c2nc(C3CCOCC3)cc(=O)n2c1 [Compound 317],,,6.30 to 7.00,A (A denotes >20-fold)
Cc1cc(C(C)Nc2ccccc2C(=O)O)c2nc(-c3ccc(S(N)(=O)=O)cc3)cc(=O)n2c1 (stereo not shown) [Compound 302],,,5.70 to 6.30,B (B denotes 20-fold≥value>5-fold)
Cc1cc(C(C)Nc2ccnnc2C(=O)O)c2nc(N3CCOCC3)cc(=O)n2c1 (stereo not shown) [Compound 358],,,< 5.70,C (C denotes ≤5-fold)
Cc1cc([C@H](C)Nc2ccccc2C(=O)O)c2nc(-c3ccc4c(c3)CC(=O)N4)cc(=O)n2c1 [Compound 766],,C (C denotes ≤5-fold),,
"Cc1cc(C(C)Nc2cccc3onc(O)c23)c2nc(-c3cccnc3)c(C)c(=O)n2c1 (stereo not shown) [Compound 1365, 9-(1-((3-hydroxybenzo[d]isoxazol-4-yl)amino)ethyl)-3,7-dimethyl-2-(pyridin-3-yl)-4H-pyrido[1,2-a]pyrimidin-4-one]",6.30 to 7.00,,,A (A denotes >20-fold)
"Cc1cc([C@H](C)Nc2ccccc2C(=O)O)c2nc(-c3ccc4c(c3)c(N)nn4C)cc(=O)n2c1 (single isomer, unassigned) [Compound 536]",,,> 7.00,A (A denotes >20-fold)
Cc1cc([C@@H](C)Nc2ccccc2C(=O)O)c2nc(-n3cnc4ccc(O)cc43)cc(=O)n2c1 [Compound 826],5.70 to 6.30,B (B denotes 20-fold≥value>5-fold),,
Cc1cc(C(C)NC2=CC=CCC2C(=O)O)c2nc(Cc3cccc(C4=CCCC=C4)c3)c(C)c(=O)n2c1 (stereo not shown) [Compound 300],,,< 5.70,C (C denotes ≤5-fold)
COc1cc(NC(C)c2cc(C)cn3c(=O)cc(N4CCOCC4)nc23)c(C(=O)O)cc1OC (stereo not shown) [Compound 325],,,< 5.70,C (C denotes ≤5-fold)
Cc1cc([C@H](C)Nc2ccccc2C(=O)O)c2nc(-c3ccc(C(=O)NO)cc3)cc(=O)n2c1 [Compound 502],,,< 5.70,C (C denotes ≤5-fold)
Cc1cc(C(C)Nc2ccccc2C(=O)O)c2nc(-c3ccncc3)cc(=O)n2c1 (stereo not shown) [Compound 267],,,6.30 to 7.00,A (A denotes >20-fold)
Cc1cc([C@H](C)N[C@@H](C(=O)O)c2ccccc2)c2nc(N3CCOCC3)cc(=O)n2c1 [Compound 651],< 5.70,C (C denotes ≤5-fold),,
